Values of other authors in patent US11058674B2 (priority 2016, dated 2021).
Like-named read-outs stand apart in the source and are kept apart here.

Key:
[1] = parameters: key: ∘: Effective; settings: alcohol addiction
[2] = believed, from literature
[3] = parameters: key: ∘: Effective; settings: alcohol addiction; remark: listed apart in the source
rat = system: rat; parameters: key to Self-administration Seeking behavior: ∘: Effective; x: Ineffective
mouse [4] = system: mouse; parameters: key to Conditioned place preference Relapse: ∘: Effective; settings: for CPP acquisition caused by cocaine / CPP expression caused by cocaine: N/OFQ: intraventricular administration to a mouse
mouse [5] = system: mouse; parameters: key: ∘: Effective; settings: cocaine addiction
mouse [6] = system: mouse; parameters: key: ∘: Effective; x: Ineffective; settings: cocaine addiction

CNC(=O)Cn1c(=O)n(C2CCN([C@@H]3Cc4cccc5cccc3c45)CC2)c2ccccc21.Cl.O [MT-7716, (R)-2-{3-[1-(acenaphthen-1-yl)piperidin-4-yl]-2-oxo-2,3-dihydro-1H-benzimidazol-1-yl}-N-methylacetamide hydrochloride monohydrate]
Self-administration Seeking behavior [1]: ∘ ^12) | Self-administration Uptake behavior [1]: ∘ ^11)

Cc1ccccc1C(c1ccccc1C)N1C2CCC1CC(O)(c1ccccc1)C2 (centres unmarked) [SCH221510]
migration to brain [2]: low migration to brain

N/OFQ: Endogenous ligands of the NOP receptor, named nociceptin and orphanin FQ
Self-administration Seeking behavior [1]: ∘ ^9) | Self-administration Uptake behavior [1]: ∘ ^9) | Conditioned place preference Acquisition [3]: ∘ ^13) | Conditioned place preference Expression [3]: ∘ ^13) | Conditioned place preference Relapse [3]: ∘ ^13) | Self-administration Seeking behavior (rat; cocaine addiction): x ^16) | cocaine seeking behavior induced by a stress after the extinction of the cocaine self-administration (rat; rat): does not suppress | CPP acquisition caused by cocaine (mouse [4]): blocks | CPP expression caused by cocaine (mouse [4]): blocks | Conditioned place preference Acquisition (mouse [5]): ∘ ^17) | Conditioned place preference Expression (mouse [5]): ∘ ^18)

O=C1Cc2ccccc2N1C1CCN(C2CCC3CCCc4cccc2c43)CC1 (centres unmarked) [AT-202, 1-[1-(2,3,3a,4,5,6-hexahydro-1H-phenalen-1-yl)piperidin-4-yl]-indolin-2-one]
CPP acquisition caused by cocaine (mouse [4]): does not affect | relapse of CPP caused by a stress (mouse [4]; cocaine CPP): suppresses | Conditioned place preference Relapse (mouse [4]; cocaine addiction): ∘ ^20) | Conditioned place preference Acquisition (mouse [6]): x ^20)

Cl.O=C1NCN(c2ccccc2)C12CCN([C@H]1CC[C@@H]3CCCc4cccc1c43)CC2 [Ro64-6198, (1S,3aS)-8-(2,3,3a,4,5,6-hexahydro-1H-phenalen-1-yl)-1-phenyl-1,3,8-triaza-spiro[4.5]decan-4-one hydrochloride]
Self-administration Uptake behavior [1]: ∘ ^10) | Conditioned place preference Acquisition [3]: ∘ ^13) | Conditioned place preference Expression [3]: ∘ ^13) | Conditioned place preference Relapse [3]: ∘ ^13)

Cl.O=C1NCN(c2ccccc2)C12CCN(C1Cc3cccc4cccc1c34)CC2 (centres unmarked) [Ro65-6570, 8-acenaphthen-1-yl-phenyl-1,3,8-triaza-spiro[4.5]decan-4-one hydrochloride]
CPP acquisition caused by cocaine (mouse [4]): does not affect | CPP expression caused by cocaine (mouse [4]): does not affect | Conditioned place preference Acquisition (mouse [6]): x ^19) | Conditioned place preference Expression (mouse [6]): x ^18)
